Here are results for one compound from PMC9942528 (Journal of medicinal chemistry, 2022).

Marks after values point to notes of the source that are not given here.

Series [1] relates to mouse hippocampal organotypic cultures. The note with it: OHCs stimulated with LPS, pre-treatment; ref [27]; cited from earlier work.
For series [2], the system named is APP/PS1 mouse model. Particulars: systemic administration, ref [28]; cited from earlier work.
The test system of series [3] is rat primary microglial cells. The note with it: rat primary microglial cultures stimulated with LPS; ref [25]; cited from earlier work.
The conditions of series [4]: rat microsomes; ref [25]; cited from earlier work.
The conditions of series [5]: hCMEC/D3 cells; ref [25]; cited from earlier work.
In series [6] the target is T1, human FPR2 (Homo sapiens, UniProt P25090).
T1 sequence (P25090 1-351): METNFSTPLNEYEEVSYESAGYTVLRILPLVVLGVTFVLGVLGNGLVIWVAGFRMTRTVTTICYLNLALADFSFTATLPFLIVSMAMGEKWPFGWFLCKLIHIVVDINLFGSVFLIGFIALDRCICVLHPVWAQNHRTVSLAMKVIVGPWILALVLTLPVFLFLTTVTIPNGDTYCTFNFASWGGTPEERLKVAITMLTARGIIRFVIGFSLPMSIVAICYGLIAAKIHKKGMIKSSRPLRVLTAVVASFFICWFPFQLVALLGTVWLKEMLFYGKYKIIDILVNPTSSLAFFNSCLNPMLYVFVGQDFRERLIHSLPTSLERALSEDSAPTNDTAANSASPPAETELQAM
The series is described as follows: Ca2+ mobilization. Particulars: EC50 FPR1 vs EC50 FPR2. Background: A change in cytosolic calcium serves as a functional read-out for many receptors and channels.

In the case of `N#Cc1ccc(C[C@H](NC(=O)Nc2ccc(F)cc2)C(=O)NCC2(c3ccc(F)c(Cl)c3)CC2)cc1` [Compound 2], in series [1], the “release of TNF-α and IL-1β” value was “attenuated the release of TNF-α and IL-1β”. In series [2], the “neuronal survival, microglial cell density and plaque load” value is “improved neuronal survival and decreased microglial cell density and plaque load”. For the same compound, the “release of IL-1β and TNF-α” value in series [3] is reported as “reduces the release”. In series [4], the “Metabolic stability, % after 30 min incubation” value is listed as 33^b %. Further, the “efflux ratio ER (BA/AB)” value in series [5] is recorded as 2.6. Also, in series [6], the “selectivity FPR2 versus FPR1” value is “almost equipotent at both receptors”.
